Results as given in patent US20070197632A1, “Aminocyclohexyl ether compounds and uses thereof” (Cardiome Pharma Corp, priority 2003, published 2007).
Structures can show the parent of a compound that is named as a salt. Where two headings read alike, the source gives them in different places.

What was measured:
conscious rats [1] = assay: Determination of CNS toxicity: convulsions in conscious rats under intravenous infusion; conditions: Table 5, comparative example compounds; for convulsion dose: minimum iv infusion rate at which partial or complete convulsions are observed; for cum conv dose: total amount of drug infused when convulsions are first observed
conscious rats [2] = conditions: rat, in vivo, iv

| Compound | convulsion dose (conscious rats [1]) [µmol/kg/min] | cum conv dose (conscious rats [1]) [µmol/kg] | convulsion dose (conscious rats [2]) [µmol/kg/min] |
| --- | --- | --- | --- |
| Cl.FC(F)(F)c1ccccc1CCO[C@H]1CCCC[C@H]1N1CCOCC1 (racemic) [Comparative Example Compound 42, (1R,2S)/(1S,2R)-2-(4-morpholinyl)-1-[(2-trifluoromethyl)-phenethoxy]-cyclohexane monohydrochloride] | 16 |  |  |
| COc1ccc(CCOC2CCCC[C@H]2N2CCOCC2)cc1OC (stereo partly drawn) [Comparative Example Compound 9, hydrochloride] | 16 | 113 |  |
| COc1ccc(CCO[C@H]2CCCCC2N2CCC3(C2)OCCO3)cc1OC (stereo partly drawn) [Comparative Example Compound 10, monohydrochloride] | 16 | 91.33 |  |
| COc1ccc(CCO[C@H]2CCCCC2N2CCCC2)cc1OC (stereo partly drawn) [Comparative Example Compound 17, monohydrochloride] | 21.33 | 118 |  |
| COc1ccc(CCOC2CCCC[C@H]2N2CCC(=O)C2)cc1OC.Cl (stereo partly drawn) [Comparative Example Compound 18, 1-{(1R,2R)/(1S,2S)-2-[2-(3,4-dimethoxyphenyl)-ethoxy]cyclohexyl}-pyrrolidin-3-one hydrochloride] | 32 |  |  |
| COc1ccc(CCOC2CCCC[C@H]2N2CCN(C(=O)Cc3ccc(OC)c(OC)c3)CC2)cc1OC.Cl.Cl (stereo partly drawn) [Comparative Example Compound 22, 1-[(3,4-dimethoxyphenyl)acetyl]-4-{(1R,2R)/(1S,2S)-2-[2-(3,4-dimethoxyphenyl)-ethoxy]cyclohexyl}-piperazine hydrochloride] | 21.33 | 133 |  |
| Cl.OC1CCN(C2CCCC[C@@H]2OCCc2c(Cl)cccc2Cl)C1 (stereo partly drawn) [Comparative Example Compound 23, (3R)/(3S)-1-{(1R,2R)/(1S,2S)-2-[2-(2,6-dichlorophenyl)-ethoxy]cyclohexyl}-pyrrolidin-3-ol hydrochloride] | 8 | 65 |  |
| Cl.OC1CCN(C2CCCC[C@@H]2OCCc2ccccc2Br)C1 (stereo partly drawn) [Comparative Example Compound 24, (3R)/(3S)-1-{(1R,2R)/(1S,2S)-2-[2-(2-bromophenyl)-ethoxy]cyclohexyl}-pyrrolidin-3-ol hydrochloride] | 13 | 67 |  |
| Cl.OC1CCN([C@@H]2CCCC[C@@H]2OCCc2cccc3ccccc23)C1 (stereo partly drawn) [Comparative Example Compound 25, (3R)/(3S)-1-{(1R,2S)/(1S,2R)-2-[2-(1-naphthyl)ethoxy]-cyclohexyl}-pyrrolidin-3-ol hydrochloride] | 16 | 70 |  |
| Cl.OC1CCN(C2CCCC[C@@H]2OCCc2cccc3ccccc23)C1 (stereo partly drawn) [Comparative Example Compound 26, (3R)/(3S)-1-{(1R,2R)/(1S,2S)-2-[2-(1-naphthyl)ethoxy]-cyclohexyl}-pyrrolidin-3-ol hydrochloride] | 8 |  |  |
| Cl.O[C@@H]1CCN(C2CCCC[C@@H]2OCCc2ccccc2C(F)(F)F)C1 (stereo partly drawn) [Comparative Example Compound 27] | 16 |  |  |
| Cl.OC1CCN(C2CCCC[C@@H]2OCCn2ccc3ccccc32)C1 (stereo partly drawn) [Comparative Example Compound 28] | 16 |  |  |
| c1ccc2cc(CCO[C@H]3CCCCC3N3CCOCC3)ccc2c1 (stereo partly drawn) [Comparative Example Compound 30, (1R,2R)/(1S,2S)-[2-(4-morpholinyl)-1-(2-naphihenethoxy)]-cyclohexane monohydrochloride] |  | 85 |  |
| c1ccc2c(CCO[C@H]3CCCCC3N3CCOCC3)cccc2c1 (stereo partly drawn) [Comparative Example Compound 31, (1R,2R)/(1S,2S)-[2-(4-morpholinyl)-1-(1-naphthenethoxy)]-cyclohexane] | 16 | 93 |  |
| Brc1ccc(CCO[C@H]2CCCCC2N2CCOCC2)cc1 (stereo partly drawn) [Comparative Example Compound 32] | 12 | 91 |  |
| c1ccc2cc(OCCO[C@H]3CCCCC3N3CCOCC3)ccc2c1 (stereo partly drawn) [Comparative Example Compound 33, (1R,2R)/(1S,2S)-[2-(4-morpholinyl)-1-[2-(2-naphthoxy)ethoxy]]-cyclohexane] | 8 |  |  |
| Brc1ccc(OCCO[C@H]2CCCCC2N2CCOCC2)cc1 (stereo partly drawn) [Comparative Example Compound 34, (1R,2R)/(1S,2S)-[2-(4-morpholinyl)-1-[2-(4-bromophenoxy)-ethoxy]]cyclohexane] |  | 83 |  |
| COc1ccc(CCO[C@H]2CCCCC2N2CCOCC2)cc1OC (stereo partly drawn) [Comparative Example Compound 35, (1R,2R)/(1S,2S)-[2-(4-morpholinyl)-1-(3,4-dimethoxy-phenethoxy)]-cyclohexane] | 16 |  |  |

| Compound | convulsion dose (conscious rats [1]) [µmol/kg/min] | cum conv dose (conscious rats [1]) [µmol/kg] | convulsion dose (conscious rats [2]) [µmol/kg/min] |
| --- | --- | --- | --- |
| c1ccc2c(CCO[C@H]3CCCCC3N3CCOCC3)csc2c1 (stereo partly drawn) [Comparative Example Compound 36] | 8 | 65 |  |
| c1cc(CCO[C@H]2CCCCC2N2CCOCC2)c2ccsc2c1 (stereo partly drawn) [Comparative Example Compound 37] | 8 | 54 |  |
| Brc1cccc(CCO[C@H]2CCCCC2N2CCOCC2)c1 (stereo partly drawn) [Comparative Example Compound 38, (1R,2R)/(1S,2S)-[2-(4-morpholinyl)-1-(3-bromophenethoxy)]-cyclohexane] | 16 |  |  |
| Brc1ccccc1CCO[C@H]1CCCCC1N1CCOCC1 (stereo partly drawn) [Comparative Example Compound 39, (1R,2R)/(1S,2S)-[2-(4-morpholinyl)-1-(2-bromophenethoxy)]-cyclohexane] | 16 |  |  |
| Clc1ccc(CCO[C@H]2CCCCC2N2CCOCC2)cc1Cl (stereo partly drawn) [Comparative Example Compound 40, (1R,2R)/(1S,2S)-2-(4-morpholinyl)-1-(3,4-dichlorophenethoxy)cyclo-hexane] | 16 |  |  |
| Cl.O=C1CCN(C2CCCC[C@@H]2OCCc2c(Cl)cccc2Cl)C1 (stereo partly drawn) [Comparative Example Compound 41, (1R,2R)/(1S,2S)-2-(3-ketopyrrolidinyl)-1-(2,6-dichlorophenethoxy)cyclo-hexane monohydrochloride] | 32 | 190 |  |
| CC(=O)OC1CCN([C@@H]2CCCCC2OCCc2cccc3ccccc23)C1.Cl (stereo partly drawn) [Comparative Example Compound 43, (1R,2R)/(1S,2S)-2-(3-acetoxypyrrolidinyl)-1-(1-naphthenethoxy)cyclo-hexane monohydrochloride] | 8 | 65 |  |
| Cl.Clc1cccc(Cl)c1COC1CCCC[C@H]1N1CCOCC1 (stereo partly drawn) [Comparative Example Compound 44, (1R,2R)/(1S,2S)-2-(4-morpholinyl)-1-[(2,6-dichlorophenyl)methoxy]-cyclohexane monohydrochloride] | 16 | 97 |  |
| Cl.O=C1CCN([C@@H]2CCCCC2OCc2c(Cl)cccc2Cl)C1 (stereo partly drawn) [Comparative Example Compound 45, (1R,2R)/(1S,2S)-2-(3-ketopyrrolidinyl)-1-[(2,6-dichlorophenyl)methoxy]-cyclohexane monohydrochloride] | 32 |  |  |
| Cl.OC1CCN(C2CCCC[C@@H]2OCCc2c(Cl)cccc2Cl)C1 (stereo partly drawn) [Comparative Example Compound 46, (1R,2R)/(1S,2S)-2-(3-hydroxypyrrolidinyl)-1-(2,6-dichlorophenethoxy)cyclo-hexane monohydrochloride] | 8 |  |  |
| Cl.O=C1CCN(C2CCCC[C@@H]2OCC(c2ccccc2)c2ccccc2)C1 (stereo partly drawn) [Comparative Example Compound 47, (1R,2R)/(1S,2S)-2-(3-ketopyrrolidinyl)-1-(2,2-diphenylethoxy)cyclo-hexane monohydrochloride] | 21 |  |  |
| Cl.Clc1cccc(Cl)c1CCOC1CCCC[C@H]1N1CCSC1 (stereo partly drawn) [Comparative Example Compound 48, (1R,2R)/(1S,2S)-2-(3-thiazolidinyl)-1-(2,6-dichlorophenethoxy)cyclo-hexane monohydrochloride] | 43 |  |  |
| Cl.Clc1cccc(Cl)c1CCO[C@@H]1CCCC[C@H]1N1CCSC1 [Comparative Example Compound 48, (1R,2R)/(1S,2S)-2-(3-thiazolidinyl)-1-(2,6-dichlorophenethoxy)cyclo-hexane monohydrochloride] | 8 | 44.4 |  |
| COc1ccc(CCO[C@H]2CCCC[C@@H]2N2CC[C@@H](O)C2)cc1OC.Cl [Compound 2, (1S,2S)-2-[(3R)-Hydroxypyrrolidinyl]-1-(3,4-dimethoxyphenethoxy)-cyclohexane monohydrochloride] |  |  | 64 |
| COc1ccc(CCO[C@H]2CCCCC2N2CCC(O)C2)cc1OC (stereo partly drawn) [Compound 3, (1R,2R)/(1S,2S)-2-[(3R)/(3S)-Hydroxypyrrolidinyl]-1-(3,4-dimethoxyphenethoxy)-cyclohexane monohydrochloride] |  |  | 64 |
| COc1ccc(CCO[C@H]2CCCCC2N2CC[C@@H](O)C2)cc1OC.Cl (stereo partly drawn) [Compound 4, (1R,2R)/(1S,2S)-2-[(3R)-Hydroxypyrrolidinyl]-1-(3,4-dimethoxyphenethoxy)-cyclohexane monohydrochloride] |  |  | 64 |
| COc1ccc(CCO[C@H]2CCCCC2N2CC[C@H](O)C2)cc1OC.Cl (stereo partly drawn) [Compound 5, (1R,2R)/(1S,2S)-2-[(3s)-Hydroxypyrrolidinyl]-1-(3,4-dimethoxyphenethoxy)-cyclohexane monohydrochloride] |  |  | 64 |
| COc1ccc(CCO[C@@H]2CCCC[C@H]2N2CC[C@H](O)C2)cc1OC.Cl [Compound 6, (1R,2R)-2-[(3S)-Hydroxypyrrolidinyl]-1-(3,4-dimethoxyphenethoxy)-cyclohexane monohydrochloride] |  |  | 64 |
